Source: patent publication US7530461B2, “Esters of 5-aminolevulinic acid as photosensitizing agents in photochemotherapy” (PhotoCure ASA, priority 1995, dated 2009)
Entries after “also recorded” stand apart in the source; their conditions may differ.

How the values were obtained:
[1] = test system: cervical intraepithelial lesions (CIN); experiment: Fluorescence detection of cervical intraepithelial lesions using HAL; assay type: in vivo, human
Description: This study involved 32 non-pregnant women with histologically proven squamous intraepithelial lesions (CIN).
5 to 20 ml of a cold-cream containing 0.5% (w/w) HAL hydrochloride was applied locally by means of a cervical cap. Random biopsies were performed at time points ranging from 5 min to 7 hours to assess the selective accumulation of HAL, as shown by fluorescence images. Image analysis on frozen tissue sections was carried out using a Zeiss Axiophot image analysis system.
A total of 112 biopsies were obtained from 32 patients. From these biopsies approximately 2000 fluorescence images were produced. […] Immediately after the biopsies were taken, the tissue was quickly frozen in liquid nitrogen and stored at −70° C. prior to use in order to stop any formation/degradation of cellular porphyrins. Tissue sections were prepared in the dark to avoid photobleaching. The frozen tissue blocks were mounted in Tissue Tek embedding compound (BDH) and a series of sections were prepared using a cryostat. Tissue sections were mounted on glass slides and images were recorded with a grey-scale camera. A band pass filter (BP395-440 nm) was used for excitation, while a second band-pass filter was used to record the specific Pp fluorescence.

[2] = test system: basal cell carcinoma (BCC) lesions and surrounding normal skin; experiment: PpIX fluorescence in human BCC and surrounding normal skin by optical-fiber based system; assay type: in vivo; settings: 20% for 4 hours, topical
Description: The PpIX fluorescence in the BCC lesions and surrounding normal skin of human patients was measured in situ by optical-fiber based system after topical application of 20% free ALA and its derivatives for various time intervals.
The PpIX fluorescence ratios between BCC lesions and surrounding normal skin after topical application of ALA or its esters (20% for 4 hours), was examined using methods described in previous examples.

[3] = test system: bladder cancer cells from patient urine; experiment: Detection of bladder cancer cells in urine; assay type: cell-based, human; settings: 40 μg/ml or 0.15 mM, 4 hours at 37° C., blue light 390-440 nm
Description: Urine of a patient with bladder cancer was centrifuged (1500 rpm for 5 min) and resuspended into cell growth medium containing 10% fetal calf serum and HAL hydrochloride (40 μg/ml or 0.15 mM) for 4 hours at 37° C. in the dark. The cells fluoresced under blue light (390-440 nm) after being incubated with HAL HCl (FIG. 28). […] This was confirmed by cytology.

[4] = test system: bladder carcinoma in situ (CIS) and other bladder tumor lesions; experiment: HAL fluorescence detection of bladder lesions vs. white light cystoscopy; assay type: in vivo, human
Description: Photodynamic detection of bladder carcinoma in situ (CIS) (flat cancer lesions) after exposure to a hexyl aminolevulinate composition (8 mM HAL in PBS: 4.3 mM KH2PO4, 4.3 mM Na2HPO4, 120 mM NaCl, pH 6.0) for one hour was performed and compared to white light cystoscopy in patients with bladder cancer (FIG. 31).
About 50 ml of HAL solution was instilled into the bladder. The solution was allowed to remain in the bladder for one hour. After bladder evacuation, the bladder was inspected by using a cystoscope (Storz D-Light, Karl Storz, Tuttlingen, Germany) and mapped under white light followed by inspection and mapping of all fluorescing lesions using blue light (380-450 nm) (light of wavelength of about 405 nm could have been used as the PpIX absorption spectrum includes a maximum near 405 nm). After mapping of the lesions in white and blue light separately, biopsies and resected tissue were obtained of all lesions and suspicious areas. Finally, one biopsy from normal appearing urothelium (negative in white and blue light) was taken. Tissue material was prepared by the local pathlogist and examined by both local and a central pathologist to verify the diagnosis.
In another study, an HAL composition detected 98% of tumor lesions in patients (regardless of tumor type), whereas use of white light identified only 73% of the lesions. The HAL solution composition and instillation and cystoscopy procedure is described above. The cystoscopy findings were verified by examination (by a pathologist) of 5 random biopsies taken from each patient. There were a total of 143 verified tumors in 45 patients including carcinoma in situ (CIS) and Ta or T1 lesions. HAL cystoscopy was performed in 43 of the patients with a detection rate of 96% (43/45). White light cystoscopy was performed in 33 of the patients with a detection rate of 73% (33/45).

[5] = test system: Human transitional cell carcinoma cells (T24); experiment: Induced fluorescence in T24 cells in vitro; assay type: cell-based
Description: Human transitional cell carcinoma cells (T24) were used. ALA and ALA esters were dissolved in growth medium not containing serum. Fluorescence was observed using an excitation wavelength of 410 nm and detecting emission at 640 nm.

CCCCCCOC(=O)CCC(=O)CN.Cl [HAL, n-hexyl 5-aminolevulinate hydrochloride]
fluorescence of cervical lesions after topical application ([1]; 0.5% (w/w) HAL hydrochloride cold-cream, hydrochloride): excellent fluorescence; also recorded: high and homogenous fluorescence in the lesions
adverse reactions / tolerability ([1]; 0.5% cream applied to the cervix, patients, hydrochloride): No local or systemic adverse reactions; also recorded: well tolerated
fluorescence after 5 minutes application ([1]; 0.5% cream, 5 minutes): low
fluorescence throughout the lesion at application times of 30 minutes and longer ([1]; 0.5% cream, 30 minutes and longer): high and homogenous fluorescence throughout the lesion
selectivity of fluorescence for precancerous lesions ([1]; 0.5% cream, cervical biopsies of CIN lesions): excellent selectivity for precancerous lesions
selectivity at application time more than three hours ([1]; 0.5% cream, more than three hours): the selectivity was reduced
selectivity after 1-2 hour application ([1]; HAL 0.5% cream, 1-2 hour): excellent
PpIX fluorescence ratios between BCC lesions and surrounding normal skin (selectivity) compared with free ALA [2]: more selectively induce PpIX in BCC lesions than free ALA
fluorescence of urine cells under blue light [3]: only cancer cells fluoresced
CIS lesion detection rate as verified by biopsies ([4]; 8 mM HAL in PBS, one hour instillation, 218 patients for analysis): 97%
carcinoma in situ lesions identified in patients with CIS lesions only ([4]; 13 patients with CIS lesions only, 12/13): 92%
detection rate of HAL cystoscopy (patients) ([4]; another study, 43/45): 96%
tumor lesions detected (regardless of tumor type) ([4]; another study, 143 verified tumors in 45 patients): 98%
maximum fluorescence relative to the maximum induced by aminolevulinic acid ([5]; same conditions): nearly three times
concentration inducing maximum fluorescence in cells in vitro ([5]; serum-free medium, excitation 410 nm, emission 640 nm): about 13 mM
